Assay [1] has as its target T1, HIF-2α HIS TAG-PASB Domain (Homo sapiens, UniProt Q99814).
T1 construct: 100 nM HIF-2α HIS TAG-PASB Domain
The assay is described as follows: HIF-2α Scintillation Proximity Assay (SPA). The settings on record: read-out: Scintillation Proximity Assay IC50. The class given is binding. The method in brief: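 IC50 values rest on percent inhibition, where the sample signal is scaled between high and low controls. Wells contain about 100 μL: compound dispensed as 2 μL of DMSO solution, 88 μL protein-probe mix and 10 μL of beads.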
In general terms: In a scintillation proximity assay essentially only radioactivity close to the scintillant gives light.

The next assay has as its system 786-O-Hif-Luc cells. Put plainly: Luciferase Assay (HIF responsive elements reporter).
Setting [2] is: read-out: Mean Luciferase EC50 (nM), 786-O-Hif-Luc cells.
The mark [3] stands for this setting: read-out: Mean Luciferase EC50 (nM).

SMILES strings stand for the structures. Read-outs that look alike come from different tables or passages of the source. Where only a bound is given, the exact number is not on record here.

The results in this text go back to patent US10278942B2 (PELOTON THERAPEUTICS, INC., priority 2015, dated 2019).

T1 sequence (Q99814 240-350 limits assumed): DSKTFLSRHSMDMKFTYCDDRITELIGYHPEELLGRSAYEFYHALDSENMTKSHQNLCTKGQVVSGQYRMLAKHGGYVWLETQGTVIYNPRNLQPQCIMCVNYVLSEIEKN
Procedure for 786-O-Hif-Luc cells: A pool of infected cells were then selected against 2 μg/mL of puromycin (P8833, Sigma) for 10 days followed by limited dilution to select single clones. […] Each concentration was tested in triplicate. After about 24 hours, luciferase activity was determined using ONE-Glo Luciferase Assay Reagent (E6110, Promega) following the manufacturer's recommended procedure. EC50 were calculated using Dotmatics software.

Consider `N=S1(=O)c2ccc(Oc3cc(F)cc(F)c3)c(Br)c2C(O)C1(F)F` (stereo not shown) [Compound 377], for which the half-inhibitory concentration (IC50) (commonly the concentration that gives 50% inhibition) in assay [1] is above 1 µM. In addition, the EC50 (as a rule, the concentration that produces a half-maximal response) in the assay with 786-O-Hif-Luc cells (setting [2]) fell in the range of 250 to 1000 nM.

`N#Cc1cncc(Oc2ccc(S(N)(=O)=O)c3c2CC(F)(F)[C@H]3O)c1` [Compound 253]: in assay [1], the IC50 is above 1 µM. Also, the EC50 with 786-O-Hif-Luc cells (setting [2]) was above 1000 nM.

In the case of `N#Cc1cc(F)cc(Oc2ccc(S(=O)(=O)C(F)(F)F)cc2Br)c1` [Compound 118], the IC50 in assay [1] fell in the range of 0.05 to 0.249 µM. The concentration giving a half-maximal response (EC50) in the assay on 786-O-Hif-Luc cells (setting [2]) is above 1000 nM.

`OC1c2c(C(F)F)ccc(OCC(F)F)c2CC1(F)F` (stereo not shown) [Compound 586]: the IC50 in assay [1] lay in the range of 0.05 to 0.249 µM. Further, the EC50 in the assay on 786-O-Hif-Luc cells (setting [2]) is above 1000 nM.

With `O=S(=O)(c1ccc(Oc2cc(F)cc(Cl)c2)c(Cl)c1CCl)C(F)F` [Compound 46], the IC50 in assay [1] was in the range of 0.25 to 1 µM. The EC50 in the assay with 786-O-Hif-Luc cells (setting [2]) is above 1000 nM.

For `CC1(C)CC[C@@H](O)[C@@H](c2ccc(S(=O)(=O)C(F)(F)F)c3c2CC(F)(F)[C@H]3O)C1` [Compound 545], the IC50 in assay [1] lay within 0.05 to 0.249 µM. In the assay on 786-O-Hif-Luc cells (setting [2]), the concentration for a half-maximal effect (EC50) was above 1000 nM.

Consider `COc1c(Oc2cc(F)cc(C#N)c2)ccc2c1C(O)C(F)(F)S2(=O)=O` (stereo not shown) [Compound 433], for which the IC50 in assay [1] was in the range of 0.25 to 1 µM. Further, in the assay with 786-O-Hif-Luc cells (setting [2]), the EC50 was above 1000 nM.

For the compound `N=S(=O)(c1ccc(Oc2cc(F)cc(Cl)c2)c(Br)c1Cl)C(F)(F)F` (stereo not shown) [Compound 75], the IC50 in assay [1] lay within 0.05 to 0.249 µM. Further, the concentration for a half-maximal effect (EC50) with 786-O-Hif-Luc cells (setting [2]) is above 1000 nM.

Turning to `COc1cc(F)cc(Oc2ccc(S(=O)(=O)C(F)F)c3c2CC[C@H]3O)c1` [Compound 6], the IC50 in assay [1] was below 0.05 µM. Besides, the 50% effective concentration (EC50) in the assay with 786-O-Hif-Luc cells (setting [2]) is 50 to 249 nM.

Consider `N#Cc1cc(F)cc(Oc2ccc(S(=O)(=O)C(F)F)c3c2CC(F)(F)[C@H]3N)c1` [Compound 207], for which the 50% inhibitory concentration (IC50) in assay [1] was 0.25 to 1 µM. In addition, the EC50 in the assay with 786-O-Hif-Luc cells (setting [2]) is 250 to 1000 nM.

On to `O/N=C1/c2c(C(F)(F)F)ccc(OCC(F)F)c2CC1(F)F` [Compound 580], for which the half-maximal inhibitory concentration (IC50) in assay [1] lay in the range of 0.25 to 1 µM. Besides, in the assay with 786-O-Hif-Luc cells (setting [2]), the EC50 is above 1000 nM.

For the compound `CS(=O)(=O)c1ccc(Sc2cc(F)cc(Cl)c2)c2c1[C@H](O)C(F)(F)[C@@H]2F` [Compound 491, (1S,3R)-4-((3-chloro-5-fluorophenyl)thio)-2,2,3-trifluoro-7-(methylsulfonyl)-2,3-dihydro-1H-inden-1-ol], the IC50 in assay [1] is below 0.05 µM. For the same compound, the EC50 in the assay with 786-O-Hif-Luc cells (setting [2]) is above 1000 nM.

With `O=C1c2c(S(=O)(=O)C(F)F)ccc(Oc3cncc(Cl)c3)c2CC1(F)F` [Compound 182], the IC50 in assay [1] was 0.25 to 1 µM. Moreover, in the assay on 786-O-Hif-Luc cells (setting [2]), the EC50 is above 1000 nM.

In the case of `N#CC1(CCOc2ccc(S(=O)(=O)C(F)(F)F)c3c2CC(F)(F)[C@H]3O)COC1` [Compound 749], in assay [1], the IC50 is 0.25 to 1 µM. Further, in the assay with 786-O-Hif-Luc cells (setting [2]), the concentration for a half-maximal effect (EC50) is above 1000 nM.

For `N#Cc1cncc(Oc2ccc(S(=O)(=O)C(F)(F)F)c3c2CCC3O)c1` (stereo not shown) [Compound 220], in assay [1], the IC50 lay within 0.25 to 1 µM. Also, the half-maximal effective concentration (EC50) in the assay with 786-O-Hif-Luc cells (setting [2]) was above 1000 nM.

In the case of `N#CC1(COc2ccc(S(=O)(=O)C(F)(F)F)c3c2CC(F)(F)[C@H]3O)CCC1` [Compound 790], the IC50 in assay [1] is below 0.05 µM. For the same compound, in the assay on 786-O-Hif-Luc cells (setting [2]), the EC50 was below 50 nM.

In the case of `CS(=O)(=O)c1ccc(C(F)(F)CO)c2c1C(O)CC2` (stereo not shown) [Compound 554], the IC50 in assay [1] fell in the range of 0.05 to 0.249 µM. Besides, the EC50 in the assay on 786-O-Hif-Luc cells (setting [2]) was above 1000 nM.

`NC1CS(=O)(=O)c2ccc(Oc3cc(F)cc(Cl)c3)c(C(F)F)c21` (stereo not shown) [Compound 363]: the IC50 in assay [1] is above 1 µM. Moreover, the EC50 with 786-O-Hif-Luc cells (setting [2]) is above 1000 nM.

For the compound `CC(Oc1ccc(S(=O)(=O)C(F)(F)F)c2c1CC(F)(F)[C@H]2O)C1(C#N)CC1` (stereo partly shown) [Compound 748], the IC50 in assay [1] fell in the range of 0.25 to 1 µM. The EC50 in the assay with 786-O-Hif-Luc cells (setting [2]) was 250 to 1000 nM.

For the compound `CS(=O)(=O)c1ccc(Oc2cc(F)cc(Cl)c2)c2c1C(O)CC2` (stereo not shown) [Compound 90], the IC50 in assay [1] fell in the range of 0.05 to 0.249 µM. For the same compound, in the assay with 786-O-Hif-Luc cells (setting [2]), the 50% effective concentration (EC50) was 250 to 1000 nM.

Take `O=S(=O)(c1ccc(OCC2(F)COC2)c2c1[C@H](O)C(F)(F)C2)C(F)(F)F` [Compound 573]: in assay [1], the IC50 is below 0.05 µM. For the same compound, the concentration giving a half-maximal response (EC50) in the assay on 786-O-Hif-Luc cells (setting [2]) was in the range of 50 to 249 nM.

On to `CC(C)CCOc1ccc(S(=O)(=O)C(F)(F)F)c2c1CC(F)(F)[C@H]2O` [Compound 717], for which the IC50 in assay [1] lay within 0.05 to 0.249 µM. Also, the EC50 in the assay with 786-O-Hif-Luc cells (setting [2]) is 50 to 249 nM.

Regarding `O=S1(=O)c2ccc(Oc3cccc4sccc34)c(C(F)F)c2C(O)C1(F)F` (stereo not shown) [Compound 440], the IC50 in assay [1] is below 0.05 µM. Further, the EC50 with 786-O-Hif-Luc cells (setting [2]) is 250 to 1000 nM.

Take `O=S(=O)(c1ccc(CC2CCCCC2)c2c1C(O)C(F)(F)C2)C(F)(F)F` (stereo not shown) [Compound 509]: in assay [1], the IC50 is below 0.05 µM. The EC50 in the assay on 786-O-Hif-Luc cells (setting [2]) is above 1000 nM.

Turning to `CS(=O)(=O)c1ccc(OCC2CC2)c2c1[C@H](O)C(F)(F)C2` [Compound 779], the IC50 in assay [1] is above 1 µM. Besides, in the assay on 786-O-Hif-Luc cells (setting [2]), the 50% effective concentration (EC50) is above 1000 nM.

For the compound `O=S1(=O)c2ccc(Oc3cc(F)cc(F)c3)c(C(F)F)c2C(O)C1F` (stereo not shown) [Compound 369], the concentration giving a half-maximal response (EC50) in the assay on 786-O-Hif-Luc cells (setting [2]) lay in the range of 50 to 249 nM.

On to `CS(=O)(=O)c1ccc(Oc2cc(F)cc(C#N)c2)c2c1C(O)C(F)C2` (stereo not shown) [Compound 232], for which the EC50 in the assay with 786-O-Hif-Luc cells (setting [3]) is below 50 nM.

Regarding `CS(=O)(=O)c1ccc(Oc2cc(F)cc(C#N)c2)c2c1C(O)C(F)(F)C2` (stereo not shown) [Compound 223], the EC50 with 786-O-Hif-Luc cells (setting [3]) lay in the range of 50 to 249 nM.

As to `N#Cc1cc(F)cc(Oc2ccc(S(=O)(=O)C(F)F)c(CO)c2Cl)c1` [Compound 42], the concentration giving a half-maximal response (EC50) in the assay with 786-O-Hif-Luc cells (setting [2]) was 250 to 1000 nM.

As for `N#Cc1cc(F)cc(Oc2ccc(S(N)(=O)=O)c3c2[C@@H](F)[C@@H](F)[C@H]3O)c1` [Compound 336], the half-maximal effective concentration (EC50) in the assay with 786-O-Hif-Luc cells (setting [2]) was 50 to 249 nM.
